{
  "source": "paper PMC6591635",
  "about": "“Advancing the Therapeutic Potential of Indoleamides for Tuberculosis” (Antimicrobial Agents and Chemotherapy, 2019)",
  "key": {"M. tuberculosis H37Rv [1]": {"tested_on": "M. tuberculosis H37Rv", "test": "Field emission scanning electron microscopy of cell morphology (dimples per 100 bacilli)", "type": "cell-based, Mycobacterium tuberculosis", "settings": "24 hours of treatment, FESEM; for Cell morphology (dimples per 100 cells, deformed bacilli): 10× MIC"}, "M. tuberculosis H37Rv [2]": {"tested_on": "M. tuberculosis H37Rv", "set-up": "method as in PMID 27275668", "settings": "4 weeks of treatment, 0.5% (wt/vol) CMC formulation, previous study; cited from earlier work"}, "M. tuberculosis H37Rv [3]": {"tested_on": "M. tuberculosis H37Rv", "test": "animal or person", "type": "in vivo, Mycobacterium tuberculosis", "settings": "for Lung CFU burden compared with untreated controls: 10 mg/kg, 4 weeks of treatment, P < 0.05; for ED50: Mycobacterium tuberculosis, H37RV, in Mus musculus, inhaled or nasal, 672 h, read-out: 50% effective dose (ED50)"}, "in vitro": {"test": "in vitro", "settings": "mouse, plasma"}, "M. tuberculosis H37Rv [4]": {"tested_on": "M. tuberculosis H37Rv", "settings": "M. tuberculosis; stated without method in this paper; cited from earlier work"}, "[5]": {"test": "Single dose pharmacokinetic study in mice (oral formulations, i.v.)", "type": "in vivo, Swiss Webster mice", "settings": "mouse", "procedure": "To enhance oral bioavailability, we developed a novel formulation for compound 2 in propylene glycol (PG):Tween 80 (4:1, vol/vol). We compared the bioavailability of this new formulation with a previously reported formulation using 0.5% (wt/vol) carboxymethyl cellulose (CMC) ([19]). For oral (p.o.) administration, compound 2 was prepared in either formulation at 1 mg/ml of homogeneous suspension to achieve a 10-mg/kg dose level. For intravenous (i.v.) injection, a 0.22-mg/ml solution of compound 2 in PG:Tween 80:5% glucose at 20:10:70 (vol/vol/vol) was used. Five-week-old male Swiss Webster mice were randomly assigned to time points (3 mice per arm per time point). Serial blood samples of approximately 30 μl were collected at 0.25, 0.5, 1, 2, 4, 8, and 24 h after a single p.o. dose; and at 0.083, 0.33, 1, 2, 4, 8, and 24 h after a single i.v. dose. Plasma was harvested and stored at −80°C until analysis. Plasma samples were analyzed for compound 2 using liquid chromatography-tandem mass spectrometry (LC-MS/MS), with a limit of quantification of 1.05 ng/ml. Estimation of pharmacokinetic parameters was conducted using noncompartmental analysis with WinNonlin software (Phoenix 6.3)."}, "M. tuberculosis H37Rv [6]": {"tested_on": "M. tuberculosis H37Rv", "type": "in vivo, Mycobacterium tuberculosis"}, "[7]": {"settings": "male, Swiss Webster, in vivo, po, 10 mg/kg"}, "[8]": {"settings": "50 mg/kg, 4 weeks of treatment, PG:Tween 80 formulation"}},
  "note": "Where “and” joins values, the source holds several entries; their conditions need not be identical. Equal entries are not always repeated. Where two headings read alike, the source gives them in different places. Marks after values point to notes of the source that are not given here.",
  "data": [
    {"smiles": "Cc1cc(C)c2cc(C(=O)NC3CCCCCCC3)[nH]c2c1", "note": "[compound 1]", "values": [
      {"measurement": "Cell morphology (unhealthy cells: dimples at poles and septum, wrinkled cell surface) versus untreated", "setting": "M. tuberculosis H37Rv [1]; 1× and 10× MIC", "value": "significantly higher number of unhealthy cells"},
      {"measurement": "Cell morphology (dimples per 100 cells, deformed bacilli)", "setting": "M. tuberculosis H37Rv [1]", "value": "higher rate of deformed bacilli than 1× MIC"}
    ]},
    {"smiles": "C[C@@H]1[C@H]2C[C@@H](C[C@H]1NC(=O)c1cc3c(F)cc(F)cc3[nH]1)C2(C)C", "note": "[compound 2]", "values": [
      {"measurement": "Lung CFU counts higher than positive control ethambutol at 100 mg/kg", "setting": "M. tuberculosis H37Rv [2]", "value": 2.0, "unit": "log"},
      {"measurement": "Lung CFU burden compared with untreated controls", "setting": "M. tuberculosis H37Rv [3]", "value": "significantly reduced the lung CFU burden"},
      {"measurement": "ED50", "setting": "M. tuberculosis H37Rv [3]", "value": 28.9, "unit": "mg/kg"},
      {"measurement": "fraction unbound", "setting": "in vitro", "value": 0.032},
      {"measurement": "MIC", "setting": "M. tuberculosis H37Rv [4]", "value": 4, "unit": "ng/mL"},
      {"measurement": "F (relative bioavailability)", "setting": "[5]; 10 mg/kg p.o., PG:Tween 80 formulation (suspension)", "value": 96, "unit": "%"},
      {"measurement": "F", "setting": "[5]; Swiss Webster, in vivo", "value": 22, "unit": "%"},
      {"measurement": "F (relative bioavailability)", "setting": "[5]; male, Swiss Webster, in vivo", "value": 22, "unit": "%"},
      {"measurement": "Time for which plasma concentration of free compound exceeded the MIC postdose", "setting": "[5]; male, Swiss Webster, in vivo", "value": 24, "unit": "h"},
      {"measurement": "Increase in relative bioavailability compared with the CMC formulation", "setting": "[5]; [7]", "value": 74, "unit": "%"},
      {"measurement": "Tmax", "setting": "[5]; [7]", "value": "1.00 ± 0.00", "unit": "h"},
      {"measurement": "Tmax", "setting": "[5]; male, Swiss Webster, in vivo, po, 10 mg/kg, Tmax", "value": "1.25 ± 1.06", "unit": "h"},
      {"measurement": "Lung CFU count lower than that of positive control ethambutol at 100 mg/kg", "setting": "M. tuberculosis H37Rv [6]; [8]", "value": 1.2, "unit": "log"},
      {"measurement": "Mean lung CFU count lower than that of untreated controls", "setting": "M. tuberculosis H37Rv [6]; [8]", "value": 4.66, "unit": "log"},
      {"measurement": "Lung CFU counts, Week 2", "setting": "M. tuberculosis H37Rv [6]; […], compound 2 in PG:Tween 80", "value": "3.40 (NA)^b^,^c"},
      {"measurement": "Lung CFU counts, Week 4", "setting": "M. tuberculosis H37Rv [6]; […], compound 2 in PG:Tween 80", "value": "2.82 (0.34)^b"}
    ]},
    {"smiles": "CC1(C)CCC(NC(=O)c2cc3c(Cl)cc(Cl)cc3[nH]2)CC1", "note": "[compound 3]", "values": [
      {"measurement": "Lung CFU burden compared with untreated controls", "setting": "M. tuberculosis H37Rv [3]", "value": "did not"},
      {"measurement": "ED50", "setting": "M. tuberculosis H37Rv [3]", "value": 43, "unit": "mg/kg"},
      {"measurement": "Lung CFU, D28", "setting": "M. tuberculosis H37Rv [3]; in vivo", "value": "7.05±0.09 and 6.99±0.19 and 5.66±0.14 and 4.15±0.06 and 3.65±0.11"}
    ]},
    {"smiles": "CC[C@@H](CO)NCCN[C@@H](CC)CO", "note": "[ethambutol, reference compound]", "values": [
      {"measurement": "Lung CFU counts, Week 2", "setting": "M. tuberculosis H37Rv [6]; […], compound 2 in PG:Tween 80", "value": "4.34 (0.25)^b"},
      {"measurement": "Lung CFU counts, Week 4", "setting": "M. tuberculosis H37Rv [6]; […], compound 2 in PG:Tween 80", "value": "5.60 (0.24)^b"},
      {"measurement": "Lung CFU counts, Week 2", "setting": "M. tuberculosis H37Rv [6]; in vivo", "value": "3.56 (0.26)^b"},
      {"measurement": "Lung CFU counts, Week 4", "setting": "M. tuberculosis H37Rv [6]; in vivo", "value": "4.02 (0.28)^b"}
    ]},
    {"smiles": "NNC(=O)c1ccncc1", "note": "[isoniazid, reference compound]", "values": [
      {"measurement": "Cell morphology (dimples per 100 cells, deformed bacilli)", "setting": "M. tuberculosis H37Rv [1]", "value": "more dimples per 100 cells than no treatment, but the difference did not reach statistical significance"}
    ]}
  ]
}
